Laboratory results: ChEMBL document CHEMBL1201862, “PubChem BioAssay data set” (2004)
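Method: 48-hour compound exposure of cells in 96-well plates, five concentrations, linear interpolation of endpoints. GI50 is the concentration that inhibits growth by half.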 Calls of active or inactive are those of the source. Rule as the data show it: active = GI50 up to about 1.1 µM and inactive = higher.

How the values were obtained:
Experiment in all cases: NCI anticancer screen, dose series, 48 h
HCC 2998 = test system: HCC 2998
NCI/ADR-RES = test system: NCI/ADR-RES
SK-OV-3 = test system: SK-OV-3
PC-3 = test system: PC-3
NCI-H522 = test system: NCI-H522
RPMI-8226 = test system: RPMI-8226
U-251 = test system: U-251
HCT-15 = test system: HCT-15
HT-29 = test system: HT-29
OVCAR-3 = test system: OVCAR-3
SNB-19 = test system: SNB-19
UACC-257 = test system: UACC-257
ACHN = test system: ACHN
K562 = test system: K562
SW-620 = test system: SW-620
OVCAR-8 = test system: OVCAR-8
OVCAR-5 = test system: OVCAR-5
Malme-3M = test system: Malme-3M
UACC-62 = test system: UACC-62
HCT-116 = test system: HCT-116
NCI-H23 = test system: NCI-H23
SF-539 = test system: SF-539
DU-145 = test system: DU-145
MDA-N = test system: MDA-N
KM12 = test system: KM12
OVCAR-4 = test system: OVCAR-4
SN12C = test system: SN12C
SF-268 = test system: SF-268
SR = test system: SR
SK-MEL-5 = test system: SK-MEL-5
TK-10 = test system: TK-10
T47D = test system: T47D
IGROV-1 = test system: IGROV-1
SK-MEL-2 = test system: SK-MEL-2
MOLT-4 = test system: MOLT-4
M14 = test system: M14
HOP-62 = test system: HOP-62
MDA-MB-231 = test system: MDA-MB-231
HL-60 = test system: HL-60
UO-31 = test system: UO-31
CCRF-CEM = test system: CCRF-CEM
NCI-H226 = test system: NCI-H226
MDA-MB-435 = test system: MDA-MB-435
786-0 = test system: 786-0
EKVX = test system: EKVX
CAKI-1 = test system: CAKI-1
LOX IMVI = test system: LOX IMVI
MCF7 = test system: MCF7
NCI-H460 = test system: NCI-H460
SNB-75 = test system: SNB-75
SK-MEL-28 = test system: SK-MEL-28
RXF 393 = test system: RXF 393
A498 = test system: A498
A549 = test system: A549
SF-295 = test system: SF-295
HOP-92 = test system: HOP-92
COLO 205 = test system: COLO 205

`COc1ccc2cc(C(=O)Nc3ccc(O)c(C(=O)O)c3)ccc2c1OC` was tested, and the GI50 (HCC 2998) was > 100 µM (inactive), the GI50 (NCI/ADR-RES) was > 100 µM (inactive) and the GI50 (SK-OV-3) was > 100 µM (inactive). The GI50 (PC-3) was > 100 µM (inactive), the GI50 (NCI-H522) was 49.4 µM (inactive) and the GI50 (RPMI-8226) was > 100 µM (inactive). For the same molecule, the GI50 (U-251) was > 100 µM (inactive), the GI50 (HCT-15) was over 100 µM and the GI50 (HT-29) was > 100 µM (inactive). For the same molecule, the GI50 (OVCAR-3) was > 100 µM (inactive), the GI50 (SNB-19) was > 100 µM (inactive) and the GI50 (UACC-257) was > 100 µM (inactive). For the same molecule, the GI50 (ACHN) was > 100 µM (inactive), the GI50 (K562) was > 100 µM (inactive) and the GI50 (SW-620) was > 100 µM (inactive). For the same molecule, the GI50 (OVCAR-8) was > 100 µM (inactive), the GI50 (OVCAR-5) was > 100 µM (inactive) and the GI50 (Malme-3M) was > 100 µM (inactive). The GI50 (UACC-62) was > 100 µM (inactive), the GI50 (HCT-116) was > 100 µM (inactive) and the GI50 (NCI-H23) was > 100 µM (inactive). The GI50 (SF-539) was > 100 µM (inactive), the GI50 (DU-145) was > 100 µM (inactive) and the GI50 (MDA-N) was > 100 µM (inactive). For the same molecule, the GI50 (KM12) was > 100 µM (inactive), the GI50 (OVCAR-4) was 72.6 µM (inactive) and the GI50 (SN12C) was > 100 µM (inactive). The GI50 (SF-268) was > 100 µM (inactive), the GI50 (SR) was > 100 µM (inactive) and the GI50 (SK-MEL-5) was > 100 µM (inactive). The GI50 (TK-10) was > 100 µM (inactive), the GI50 (T47D) was > 100 µM (inactive) and the GI50 (IGROV-1) was > 100 µM (inactive). For the same molecule, the GI50 (SK-MEL-2) was > 100 µM (inactive), the GI50 (MOLT-4) was > 100 µM (inactive) and the GI50 (M14) was > 100 µM (inactive). The GI50 (HOP-62) was > 100 µM (inactive), the GI50 (MDA-MB-231) was > 100 µM (inactive) and the GI50 (HL-60) was > 100 µM (inactive). The GI50 (UO-31) was > 100 µM (inactive), the GI50 (CCRF-CEM) was > 100 µM (inactive) and the GI50 (NCI-H226) was > 100 µM (inactive). For the same molecule, the GI50 (MDA-MB-435) was > 100 µM (inactive), the GI50 (786-0) was > 100 µM (inactive) and the GI50 (EKVX) was > 100 µM (inactive). The GI50 (CAKI-1) was > 100 µM (inactive), the GI50 (LOX IMVI) was > 100 µM (inactive) and the GI50 (MCF7) was > 100 µM (inactive). The GI50 (NCI-H460) was > 100 µM (inactive), the GI50 (SNB-75) was > 100 µM (inactive) and the GI50 (SK-MEL-28) was > 100 µM (inactive).

For `O=C([O-])C(O)C(O)C(O)C(O)C(=O)O.[K+]` (stereo unspecified), the GI50 (HCC 2998) was > 100 µM (inactive), the GI50 (NCI/ADR-RES) was > 100 µM (inactive) and the GI50 (SK-OV-3) was > 100 µM (inactive). For the same molecule, the GI50 (PC-3) was > 100 µM (inactive), the GI50 (NCI-H522) was > 100 µM (inactive) and the GI50 (RXF 393) was > 100 µM (inactive). The GI50 (U-251) was > 100 µM (inactive), the GI50 (HCT-15) was over 100 µM and the GI50 (HT-29) was > 100 µM (inactive). For the same molecule, the GI50 (OVCAR-3) was > 100 µM (inactive), the GI50 (SNB-19) was > 100 µM (inactive) and the GI50 (UACC-257) was > 100 µM (inactive). The GI50 (ACHN) was > 100 µM (inactive), the GI50 (K562) was > 100 µM (inactive) and the GI50 (SW-620) was > 100 µM (inactive). For the same molecule, the GI50 (OVCAR-8) was > 100 µM (inactive), the GI50 (OVCAR-5) was > 100 µM (inactive) and the GI50 (Malme-3M) was > 100 µM (inactive). The GI50 (UACC-62) was > 100 µM (inactive), the GI50 (HCT-116) was > 100 µM (inactive) and the GI50 (NCI-H23) was > 100 µM (inactive). For the same molecule, the GI50 (SF-539) was > 100 µM (inactive), the GI50 (DU-145) was > 100 µM (inactive) and the GI50 (MDA-N) was > 100 µM (inactive). The GI50 (A498) was > 100 µM (inactive), the GI50 (KM12) was > 100 µM (inactive) and the GI50 (OVCAR-4) was > 100 µM (inactive). For the same molecule, the GI50 (SN12C) was > 100 µM (inactive), the GI50 (SF-268) was > 100 µM (inactive) and the GI50 (SR) was > 100 µM (inactive). For the same molecule, the GI50 (SK-MEL-5) was > 100 µM (inactive), the GI50 (T47D) was > 100 µM (inactive) and the GI50 (IGROV-1) was > 100 µM (inactive). The GI50 (SK-MEL-2) was > 100 µM (inactive), the GI50 (MOLT-4) was > 100 µM (inactive) and the GI50 (M14) was > 100 µM (inactive). For the same molecule, the GI50 (HOP-62) was > 100 µM (inactive), the GI50 (MDA-MB-231) was > 100 µM (inactive) and the GI50 (HL-60) was 76.2 µM (inactive). For the same molecule, the GI50 (UO-31) was > 100 µM (inactive), the GI50 (A549) was > 100 µM (inactive) and the GI50 (CCRF-CEM) was > 100 µM (inactive). For the same molecule, the GI50 (SF-295) was > 100 µM (inactive), the GI50 (NCI-H226) was > 100 µM (inactive) and the GI50 (MDA-MB-435) was > 100 µM (inactive). The GI50 (786-0) was > 100 µM (inactive), the GI50 (HOP-92) was > 100 µM (inactive) and the GI50 (EKVX) was > 100 µM (inactive). For the same molecule, the GI50 (CAKI-1) was > 100 µM (inactive), the GI50 (LOX IMVI) was > 100 µM (inactive) and the GI50 (COLO 205) was > 100 µM (inactive). For the same molecule, the GI50 (MCF7) was > 100 µM (inactive), the GI50 (NCI-H460) was > 100 µM (inactive) and the GI50 (SNB-75) was > 100 µM (inactive). For the same molecule, the GI50 (SK-MEL-28) was > 100 µM (inactive).
